Measured values as given in patent publication US20090074815A1, “Immunomodulator Compounds as Vaccine Enhancers” (SCICLONE PHARMACEUTICALS, INC., priority 2005, published 2009).
Read-outs that look alike come from different tables or passages of the source.

Key:
[1] = system: leukocytes and lymphocytes in peripheral blood; experiment: Concentration of leukocytes and lymphocytes in peripheral blood before and after vaccination; format: in vivo, human; conditions: After vaccination
[2] = Clinical manifestations of infectious syndrome (ARVI, ENT diseases, herpes, gastrointestinal, urogenital) after vaccination with SCV-07; format: in vivo, human
Text: The protocol of the placebo-controlled, randomized study of the efficacy of vaccination against viral hepatitis B was approved by the committee of ethics of the Chelyabinsk State Medical Academy. […] Diagnosis of the infectious syndrome was made in accordance with the standards of diagnostics and treatment of secondary immunodeficiencies recommended by the institute of Immunology of the Ministry of Public Health of the RF, Moscow. (R. M. Kahaitov, N. I. Iljina, L. V. and Luss et al., 2002) All subjects gave their personal consent to participate in the study and submitted a signed informed consent form.
Data on the incidence of episodes and relapses of chronic diseases for each immunocompromised subject were recorded during pre- and post vaccination periods and used to compare the immunological clinical parameters of each subject in the pre- and post vaccination periods. Chronic diseases that were tracked included diseases of the ears, nose and throat, urinary systems, genital systems and gastrointestinal tract, and diseases of the skin, hair and nails (the integumentary tissues).
Participants in the study had the following clinical manifestations of infectious syndrome: sixty-seven percent (67%) had acute respiratory viral infections (ARVI) more than four times a year; forty-nine percent (49%) had chronic inflammatory diseases of the ears, nose and throat; forty-five percent (45%) suffered from recurrent herpes viral infections; thirty percent (30%) had chronic inflammatory diseases of the gastrointestinal tract; thirty-three (33%) had recurrent infections of the skin and subcutaneous adipose cellular tissues. Study participants with the spontaneous form of secondary immunodeficiency typically had more than one chronic inflammatory disease. Seventy-one percent (71%) of the subjects with infectious syndrome had three or more different clinical manifestations of a chronic inflammatory disease. Subjects with a single clinical manifestation made up only three percent (3%) of Groups I and II.

[3] = system: IL-2 production by OvA-stimulated splenocytes; experiment: OvA-stimulated production of IL-2 by splenocytes of OvA-immunized mice; conditions: for activity at 0.0001 mg/kg / activity at 0.001 mg/kg / activity at 0.01 mg/kg: Mus musculus, Splenocyte, po; for activity at 0.001 mg/kg: 1.0 μg/kg per os; for activity at 0.01 mg/kg: 10.0 μg/kg per os; for Production of IL-2 by splenocytes / Production of IL-2 by splenocytes, % (% of control): OvA/Alum
Description: The OvA was administered subcutaneously to the crest in a volume of 200 μl. Mice were immunized on day 1 with OvA in complete Freund's adjuvant (CFA; Sigma) and on day 15 with the antigen in incomplete Freund's adjuvant (IFA; Sigma). The immune response was analyzed on day 29. Mice were also immunized with 10 μg/mouse of OvA using Alum as an adjuvant.
Thymuses and spleens from mice of each treatment group were pooled, and then minced with scissors. The minced tissues were suspended in sterile PBS to form cell suspensions, filtered through a double gauze layer and centrifuged. Cells were washed twice with PBS, re-suspended in RPMI-1640 (Sigma) with 2.0 mM of L-glutamine, 50 μM of mercaptoethanol, and 10 μg/ml of gentamycin (complete medium); and cell counts were made. (The splenocyte suspension was washed with a 0.86% solution of NH4Cl to pre-lyse erthrocytes.)
Assessment of Mitogen- and Antigen-Induced Production of Cytokines: Thymic cells (1×10^6/well) in complete medium with 2% FCS were stimulated with ConA (0, 1, and 2 μg/ml). Splenocytes (1×10^6/well) in complete medium with 5% FCS were stimulated with ConA (0, 1, and 5 μg/ml) and with OvA (0-100 μg/ml). […] Supernatants from OvA-stimulated cultures were collected after 72 hours. Supernatants from both cultures were frozen, and kept at 20° C. Concentrations of IL-2, IL-4, IL-10, IL-12R40 and IFNγ in the supernatants were determined by solid-phase EIA with EIA Expansion Kits, available from BD Biosciences (formerly Pharmingen), in accordance with the manufacturer's instructions.

[4] = Patients of group 2 (SCV-07 + vaccine)
[5] = read-out: Production of IL-2 by splenocytes, % (% of control), OvA/Alum, OvA 0 μg/ml
[6] = read-out: Production of IL-2 by splenocytes, % (% of control), OvA/Alum, OvA 1 μg/ml
[7] = read-out: Production of IL-2 by splenocytes, % (% of control), OvA/Alum, OvA 10 μg/ml
[8] = read-out: Production of IL-2 by splenocytes, % (% of control), OvA/Alum, OvA 25 μg/ml
[9] = read-out: Production of IL-2 by splenocytes, % (% of control), OvA/Alum, OvA 100 μg/ml
[10] = read-out: Production of IL-2 by splenocytes, % (% of control), OvA/FA, OvA 0 μg/ml
[11] = read-out: Production of IL-2 by splenocytes, % (% of control), OvA/FA, OvA 1 μg/ml
[12] = read-out: Production of IL-2 by splenocytes, % (% of control), OvA/FA, OvA 10 μg/ml
[13] = read-out: Production of IL-2 by splenocytes, % (% of control), OvA/FA, OvA 25 μg/ml
[14] = read-out: Production of IL-2 by splenocytes, % (% of control), OvA/FA, OvA 100 μg/ml

SMILES: N[C@H](CCC(=O)N[C@@H](Cc1c[nH]c2ccccc12)C(=O)O)C(=O)O [SCV-07, γ-D-glutamyl-L-tryptophan]
- Leukocytes × 10^9/l ([1]; Healthy subjects (Group III)): 6.04 ± 0.31 10^9/l
- Lymphocytes % ([1]; Healthy subjects (Group III)): 19.05 ± 1.13%
- Lymphocytes × 10^9/l ([1]; Healthy subjects (Group III)): 1.19 ± 0.11 10^9/l
- Lymphocytes % [1, 4]: 27.81 ± 2.04%
- Lymphocytes × 10^9/l [1, 4]: 1.608 ± 0.096 10^9/l
- Leukocytes × 10^9/l ([1]; Patients of group 2 (infectious syndrome, SCV-07 1 mg i.m. + hepatitis B vaccine)): 5.938 ± 0.351 10^9/l
- participants reporting herpes outbreaks one to two times during a year ([2]; after vaccination and SCV-07 (13% before)): 53%
- participants with herpes infections five times a year or more ([2]; after vaccination and SCV-07 administration (40% before)): no participants
- incidence of ARVI ([2]; subjects who previously reported ARVI between 5 and 9 times a year, vaccine + SCV-07): sharply reduced
- participants without episodes or outbreaks of herpes ([2]; vaccinated and received SCV-07): Thirty-four
- subjects with aggravated chronic ENT diseases three to four times a year who had no aggravated incidents during the first year after vaccination ([2]; vaccinated participants that received SCV-07): 35%
- frequency of chronic diseases of the gastrointestinal tract and the urogenital system ([2]; vaccinated participants with infectious syndrome that received SCV-07): did not change
- activity at 0.0001 mg/kg ([3]; read-out: Production of IL-2 by splenocytes, % (% of control), OvA/Alum, 0.1 μg/kg per os, OvA 0 μg/ml): 100%
- activity at 0.0001 mg/kg ([3]; read-out: Production of IL-2 by splenocytes, % (% of control), OvA/Alum, 0.1 μg/kg per os, OvA 1 μg/ml): 94.3%
- activity at 0.0001 mg/kg ([3]; read-out: Production of IL-2 by splenocytes, % (% of control), OvA/Alum, 0.1 μg/kg per os, OvA 10 μg/ml): 72%
- activity at 0.0001 mg/kg ([3]; read-out: Production of IL-2 by splenocytes, % (% of control), OvA/Alum, 0.1 μg/kg per os, OvA 25 μg/ml): 148%
- activity at 0.0001 mg/kg ([3]; read-out: Production of IL-2 by splenocytes, % (% of control), OvA/Alum, 0.1 μg/kg per os, OvA 100 μg/ml): 52.5%
- activity at 0.001 mg/kg [3, 5]: 100%
- activity at 0.001 mg/kg [3, 6]: 57.7%
- activity at 0.001 mg/kg [3, 7]: 113%
- activity at 0.001 mg/kg [3, 8]: 75.4%
- activity at 0.001 mg/kg [3, 9]: 74.7%
- activity at 0.01 mg/kg [3, 5]: 100%
- activity at 0.01 mg/kg [3, 6]: 191%
- activity at 0.01 mg/kg [3, 7]: 87.2%
- activity at 0.01 mg/kg [3, 8]: 75.6%
- activity at 0.01 mg/kg [3, 9]: 104%
- activity at 0.0001 mg/kg ([3]; read-out: Production of IL-2 by splenocytes, % (% of control), OvA/FA, 0.1 μg/kg per os, OvA 0 μg/ml): 100%
- activity at 0.0001 mg/kg ([3]; read-out: Production of IL-2 by splenocytes, % (% of control), OvA/FA, 0.1 μg/kg per os, OvA 1 μg/ml): 32.4%
- activity at 0.0001 mg/kg ([3]; read-out: Production of IL-2 by splenocytes, % (% of control), OvA/FA, 0.1 μg/kg per os, OvA 10 μg/ml): 43.9%
- activity at 0.0001 mg/kg ([3]; read-out: Production of IL-2 by splenocytes, % (% of control), OvA/FA, 0.1 μg/kg per os, OvA 25 μg/ml): 119%
- activity at 0.0001 mg/kg ([3]; read-out: Production of IL-2 by splenocytes, % (% of control), OvA/FA, 0.1 μg/kg per os, OvA 100 μg/ml): 44.8%
- activity at 0.001 mg/kg [3, 10]: 100%
- activity at 0.001 mg/kg [3, 11]: 67.6%
- activity at 0.001 mg/kg [3, 12]: 248%
- activity at 0.001 mg/kg [3, 13]: 125%
- activity at 0.001 mg/kg [3, 14]: 231%
- activity at 0.01 mg/kg [3, 10]: 100%
- activity at 0.01 mg/kg [3, 11]: 49.2%
- activity at 0.01 mg/kg [3, 12]: 187%
- activity at 0.01 mg/kg [3, 13]: 176%
- activity at 0.01 mg/kg [3, 14]: 293%
- Production of IL-2 by splenocytes ([3]; 0.1 μg/kg i/p, OvA 0 μg/ml): 163.0 pg/mL
- Production of IL-2 by splenocytes ([3]; 0.1 μg/kg i/p, OvA 1 μg/ml): 190.3 pg/mL
- Production of IL-2 by splenocytes, % (% of control) ([3]; 0.1 μg/kg i/p, OvA 1 μg/ml): 116.7%
- Production of IL-2 by splenocytes ([3]; 0.1 μg/kg i/p, OvA 10 μg/ml): 87.5 pg/mL
- Production of IL-2 by splenocytes, % (% of control) ([3]; 0.1 μg/kg i/p, OvA 10 μg/ml): 53.7%
- Production of IL-2 by splenocytes ([3]; 0.1 μg/kg i/p, OvA 25 μg/ml): 83.5 pg/mL
- Production of IL-2 by splenocytes, % (% of control) ([3]; 0.1 μg/kg i/p, OvA 25 μg/ml): 51.2%
- Production of IL-2 by splenocytes ([3]; 0.1 μg/kg i/p, OvA 100 μg/ml): 84.8 pg/mL
- Production of IL-2 by splenocytes, % (% of control) ([3]; 0.1 μg/kg i/p, OvA 100 μg/ml): 52.0%
- Production of IL-2 by splenocytes ([3]; 0.1 μg/kg per os, OvA 0 μg/ml): 172.9 pg/mL
- Production of IL-2 by splenocytes ([3]; 0.1 μg/kg per os, OvA 1 μg/ml): 163.0 pg/mL
- Production of IL-2 by splenocytes ([3]; 0.1 μg/kg per os, OvA 10 μg/ml): 124.5 pg/mL
- Production of IL-2 by splenocytes ([3]; 0.1 μg/kg per os, OvA 25 μg/ml): 255.5 pg/mL
